Experimental data: the supplement of paper PMC10307832

How the values were obtained:
Experiment in all cases: relative viability (nuclei count vs DMSO), 5 days (fraction); higher = more cells survive
[1] = system: A-427
Summary of the method: (§1)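 A single step with final 0.05% Triton X-100, 1% formaldehyde and 1 ug/ml Hoechst fixed the cells and stained nuclei 5 days after treatment. Lung cancer cell lines in 1536-well plates had been treated by pin tool the day after seeding with one drug alone or a fixed anchor-drug dose plus five library-drug doses (not always all listed) in √10 steps, and nuclei were counted on 4× images. Relative viability is the ratio of nuclei in treated wells to nuclei in vehicle wells, taken as the median of duplicate plates.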

[2] = system: CAL-12T
Summary of the method: as §1

[3] = system: COR-L 105
Summary of the method: as §1

[4] = system: EPLC-272H
Summary of the method: as §1

[5] = system: HCC-15
Summary of the method: as §1

[6] = system: LC-2-ad
Summary of the method: as §1

[7] = system: LCLC-97TM1
Summary of the method: as §1

[8] = system: NCI-H1395
Summary of the method: as §1

[9] = system: NCI-H1563
Summary of the method: as §1

[10] = system: NCI-H1734
Summary of the method: as §1

[11] = system: NCI-H1792
Summary of the method: as §1

[12] = system: NCI-H1915
Summary of the method: as §1

[13] = system: NCI-H1975
Summary of the method: as §1

[14] = system: NCI-H2023
Summary of the method: as §1

[15] = system: NCI-H2342
Summary of the method: as §1

[16] = system: NCI-H2347
Summary of the method: as §1

[17] = system: NCI-H2405
Summary of the method: as §1

[18] = system: NCI-H520
Summary of the method: as §1

[19] = system: NCI-H838
Summary of the method: as §1

[20] = system: SW 1573
Summary of the method: as §1

[21] = system: SW 900
Summary of the method: as §1

[22] = system: UMC-11
Summary of the method: as §1

Structure (SMILES): Cc1csc(=NC2CCCCC2)n1/N=C/c1ccc(O)c(O)c1O [MIM1] + Cc1nc(Nc2ncc(C(=O)Nc3c(C)cccc3Cl)s2)cc(N2CCN(CCO)CC2)n1 [Dasatinib] (partner 0.075 µM)
- relative viability ([1]; first compound 0.2 µM): 0.664
- relative viability ([1]; first compound 2 µM): 0.716
- relative viability ([1]; first compound 6.325 µM): 0.573
- relative viability ([1]; first compound 20 µM): 0.178
- relative viability ([2]; first compound 0.2 µM): 0.258
- relative viability ([2]; first compound 0.6325 µM): 0.38
- relative viability ([2]; first compound 2 µM): 0.215
- relative viability ([2]; first compound 6.325 µM): 0.311
- relative viability ([2]; first compound 20 µM): 0.115
- relative viability ([3]; first compound 0.2 µM): 0.356
- relative viability ([3]; first compound 0.6325 µM): 0.424
- relative viability ([3]; first compound 2 µM): 0.339
- relative viability ([3]; first compound 6.325 µM): 0.29
- relative viability ([3]; first compound 20 µM): 0.292
- relative viability ([4]; first compound 0.2 µM): 0.406
- relative viability ([4]; first compound 0.6325 µM): 0.305
- relative viability ([4]; first compound 2 µM): 0.328
- relative viability ([4]; first compound 6.325 µM): 0.312
- relative viability ([4]; first compound 20 µM): 0.0989
- relative viability ([5]; first compound 0.2 µM): 0.635
- relative viability ([5]; first compound 2 µM): 0.57
- relative viability ([5]; first compound 6.325 µM): 0.359
- relative viability ([5]; first compound 20 µM): 0.101
- relative viability ([6]; first compound 0.2 µM): 0.834
- relative viability ([6]; first compound 0.6325 µM): 0.413
- relative viability ([6]; first compound 2 µM): 0.527
- relative viability ([6]; first compound 6.325 µM): 0.411
- relative viability ([6]; first compound 20 µM): 0.142
- relative viability ([7]; first compound 0.2 µM): 0.866
- relative viability ([7]; first compound 0.6325 µM): 0.709
- relative viability ([7]; first compound 2 µM): 1.02
- relative viability ([7]; first compound 6.325 µM): 0.552
- relative viability ([7]; first compound 20 µM): 0.431
- relative viability ([8]; first compound 0.2 µM): 0.504
- relative viability ([8]; first compound 0.6325 µM): 0.465
- relative viability ([8]; first compound 2 µM): 0.381
- relative viability ([8]; first compound 6.325 µM): 0.443
- relative viability ([8]; first compound 20 µM): 0.303
- relative viability ([9]; first compound 0.2 µM): 0.538
- relative viability ([9]; first compound 0.6325 µM): 0.508
- relative viability ([9]; first compound 2 µM): 0.43
- relative viability ([9]; first compound 6.325 µM): 0.524
- relative viability ([9]; first compound 20 µM): 0.488
- relative viability ([10]; first compound 0.2 µM): 0.453
- relative viability ([10]; first compound 0.6325 µM): 0.446
- relative viability ([10]; first compound 2 µM): 0.487
- relative viability ([10]; first compound 6.325 µM): 0.386
- relative viability ([10]; first compound 20 µM): 0.161
- relative viability ([11]; first compound 0.2 µM): 0.786
- relative viability ([11]; first compound 0.6325 µM): 0.661
- relative viability ([11]; first compound 2 µM): 0.716
- relative viability ([11]; first compound 6.325 µM): 0.757
- relative viability ([11]; first compound 20 µM): 0.808
- relative viability ([12]; first compound 0.2 µM): 0.354
- relative viability ([12]; first compound 0.6325 µM): 0.293
- relative viability ([12]; first compound 2 µM): 0.325
- relative viability ([12]; first compound 6.325 µM): 0.269
- relative viability ([12]; first compound 20 µM): 0.187
- relative viability ([13]; first compound 0.2 µM): 0.355
- relative viability ([13]; first compound 0.6325 µM): 0.377
- relative viability ([13]; first compound 2 µM): 0.346
- relative viability ([13]; first compound 6.325 µM): 0.185
- relative viability ([13]; first compound 20 µM): 0.17
- relative viability ([14]; first compound 0.2 µM): 0.519
- relative viability ([14]; first compound 0.6325 µM): 0.719
- relative viability ([14]; first compound 2 µM): 0.435
- relative viability ([14]; first compound 6.325 µM): 0.249
- relative viability ([14]; first compound 20 µM): 0.0702
- relative viability ([15]; first compound 0.2 µM): 0.319
- relative viability ([15]; first compound 0.6325 µM): 0.316
- relative viability ([15]; first compound 2 µM): 0.331
- relative viability ([15]; first compound 6.325 µM): 0.299
- relative viability ([15]; first compound 20 µM): 0.418
- relative viability ([16]; first compound 0.2 µM): 0.298
- relative viability ([16]; first compound 0.6325 µM): 0.284
- relative viability ([16]; first compound 2 µM): 0.291
- relative viability ([16]; first compound 6.325 µM): 0.339
- relative viability ([16]; first compound 20 µM): 0.26
- relative viability ([17]; first compound 0.2 µM): 0.21
- relative viability ([17]; first compound 0.6325 µM): 0.225
- relative viability ([17]; first compound 2 µM): 0.209
- relative viability ([17]; first compound 6.325 µM): 0.205
- relative viability ([17]; first compound 20 µM): 0.48
- relative viability ([18]; first compound 0.2 µM): 0.19
- relative viability ([18]; first compound 0.6325 µM): 0.21
- relative viability ([18]; first compound 2 µM): 0.286
- relative viability ([18]; first compound 6.325 µM): 0.18
- relative viability ([18]; first compound 20 µM): 0.192
- relative viability ([19]; first compound 0.2 µM): 0.326
- relative viability ([19]; first compound 0.6325 µM): 0.298
- relative viability ([19]; first compound 6.325 µM): 0.314
- relative viability ([19]; first compound 20 µM): 0.218
- relative viability ([20]; first compound 0.2 µM): 0.557
- relative viability ([20]; first compound 0.6325 µM): 0.558
- relative viability ([20]; first compound 2 µM): 0.413
- relative viability ([20]; first compound 6.325 µM): 0.244
- relative viability ([20]; first compound 20 µM): 0.0901
- relative viability ([21]; first compound 0.2 µM): 0.619
- relative viability ([21]; first compound 0.6325 µM): 0.804
- relative viability ([21]; first compound 2 µM): 0.508
- relative viability ([21]; first compound 6.325 µM): 0.449
- relative viability ([21]; first compound 20 µM): 0.23
- relative viability ([22]; first compound 0.2 µM): 0.474
- relative viability ([22]; first compound 2 µM): 0.532
- relative viability ([22]; first compound 6.325 µM): 0.402
- relative viability ([22]; first compound 20 µM): 0.235
